Assay results from PubChem BioAssay AID1963856 (Molecular Pharmacology Branch, DTP, NCI, 2024).

Test system: LG0567-F671-PDC KRAS tumor spheroid viability
Test: Anticancer human tumor LG0567-F671-PDC patient-derived lung adenocarcinoma cell line growth inhibition [KRAS2]
Conditions: spheroids with HUVEC and MSC; for IC50: curve of first compound; for viability, T/C: stronger effect = lower value
In short: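 Combination screen of spheroid viability in tumor-cell co-cultures with endothelial (HUVEC) and mesenchymal stem cell stroma. Each agent was tested in half-log dilutions, topping at clinical Cmax or at 10 microM without a known Cmax.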

[1] = second compound 0.0316 µM, first compound 0.000316 µM
[2] = second compound 0.0316 µM, first compound 0.001 µM
[3] = second compound 0.0316 µM, first compound 0.00316 µM
[4] = second compound 0.0316 µM, first compound 0.01 µM
[5] = second compound 0.0316 µM, first compound 0.0316 µM
[6] = second compound 0.1 µM, first compound 0.000316 µM
[7] = second compound 0.1 µM, first compound 0.001 µM
[8] = second compound 0.1 µM, first compound 0.00316 µM
[9] = second compound 0.1 µM, first compound 0.01 µM
[10] = second compound 0.1 µM, first compound 0.0316 µM
[11] = second compound 0.316 µM, first compound 0.000316 µM
[12] = second compound 0.316 µM, first compound 0.001 µM
[13] = second compound 0.316 µM, first compound 0.00316 µM
[14] = second compound 0.316 µM, first compound 0.01 µM
[15] = second compound 0.316 µM, first compound 0.0316 µM
[16] = second compound 1 µM, first compound 0.000316 µM
[17] = second compound 1 µM, first compound 0.001 µM
[18] = second compound 1 µM, first compound 0.00316 µM
[19] = second compound 1 µM, first compound 0.01 µM
[20] = second compound 1 µM, first compound 0.0316 µM
[21] = second compound 3.16 µM, first compound 0.000316 µM
[22] = second compound 3.16 µM, first compound 0.001 µM
[23] = second compound 3.16 µM, first compound 0.00316 µM
[24] = second compound 3.16 µM, first compound 0.01 µM
[25] = second compound 3.16 µM, first compound 0.0316 µM
[26] = second compound 0.0316 µM, first compound 0.1 µM
[27] = second compound 0.1 µM, first compound 0.1 µM
[28] = second compound 0.316 µM, first compound 0.1 µM
[29] = second compound 1 µM, first compound 0.1 µM
[30] = second compound 3.16 µM, first compound 0.1 µM
[31] = second compound 0.0316 µM, first compound 0.316 µM
[32] = second compound 0.0316 µM, first compound 1 µM
[33] = second compound 0.0316 µM, first compound 3.16 µM
[34] = second compound 0.0316 µM, first compound 10 µM
[35] = second compound 0.1 µM, first compound 0.316 µM
[36] = second compound 0.1 µM, first compound 1 µM
[37] = second compound 0.1 µM, first compound 3.16 µM
[38] = second compound 0.1 µM, first compound 10 µM
[39] = second compound 0.316 µM, first compound 0.316 µM
[40] = second compound 0.316 µM, first compound 1 µM
[41] = second compound 0.316 µM, first compound 3.16 µM
[42] = second compound 0.316 µM, first compound 10 µM
[43] = second compound 1 µM, first compound 0.316 µM
[44] = second compound 1 µM, first compound 1 µM
[45] = second compound 1 µM, first compound 3.16 µM
[46] = second compound 1 µM, first compound 10 µM
[47] = second compound 3.16 µM, first compound 0.316 µM
[48] = second compound 3.16 µM, first compound 1 µM
[49] = second compound 3.16 µM, first compound 3.16 µM
[50] = second compound 3.16 µM, first compound 10 µM
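Also: drug exposure lasted seven days after spheroids formed for three days.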
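For viability, T/C in this document: 100% = DMSO vehicle control viability.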

CC(=O)Nc1cccc(-n2c(=O)n(C3CC3)c(=O)c3c(Nc4ccc(I)cc4F)n(C)c(=O)c(C)c32)c1 + C=CC(=O)N1CCN(c2nc(OCC3CCCN3C)nc3c2CCN(c2cccc4cccc(C)c24)C3)CC1CC#N
IC50 (second compound 0.0316 µM): < 0.1 nM
IC50 (second compound 0.1 µM): < 0.1 nM
IC50 (second compound 0.316 µM): < 0.1 nM
IC50 (second compound 1 µM): < 0.1 nM
IC50 (second compound 3.16 µM): < 0.1 nM
viability, T/C (second compound 0.0316 µM, first compound 0.0001 µM): 36.6%
viability, T/C [1]: 35.6%
viability, T/C [2]: 34.5%
viability, T/C [3]: 42%
viability, T/C [4]: 24.2%
viability, T/C [5]: 7.65%
viability, T/C (second compound 0.1 µM, first compound 0.0001 µM): 23.8%
viability, T/C [6]: 32.3%
viability, T/C [7]: 56.4%
viability, T/C [8]: 24.6%
viability, T/C [9]: 12.1%
viability, T/C [10]: 4.09%
viability, T/C (second compound 0.316 µM, first compound 0.0001 µM): 30%
viability, T/C [11]: 33.2%
viability, T/C [12]: 39.7%
viability, T/C [13]: 22.1%
viability, T/C [14]: 19.3%
viability, T/C [15]: 5.95%
viability, T/C (second compound 1 µM, first compound 0.0001 µM): 38.2%
viability, T/C [16]: 37.5%
viability, T/C [17]: 23.7%
viability, T/C [18]: 31.7%
viability, T/C [19]: 15.7%
viability, T/C [20]: 6.26%
viability, T/C (second compound 3.16 µM, first compound 0.0001 µM): 30.8%
viability, T/C [21]: 22.8%
viability, T/C [22]: 12.8%
viability, T/C [23]: 12%
viability, T/C [24]: 2.28%
viability, T/C [25]: 4.58%

CC(C)n1nc(-c2ccc3oc(N)nc3c2)c2c(N)ncnc21 + C=CC(=O)N1CCN(c2nc(OCC3CCCN3C)nc3c2CCN(c2cccc4cccc(C)c24)C3)CC1CC#N
IC50 (second compound 0.0316 µM): < 0.316 nM
IC50 (second compound 0.1 µM): < 0.316 nM
IC50 (second compound 0.316 µM): < 0.316 nM
IC50 (second compound 1 µM): < 0.316 nM
IC50 (second compound 3.16 µM): < 0.316 nM
viability, T/C [1]: 33.2%
viability, T/C [2]: 28.2%
viability, T/C [3]: 20.5%
viability, T/C [4]: 19.3%
viability, T/C [5]: 13.4%
viability, T/C [26]: 12.8%
viability, T/C [6]: 29.1%
viability, T/C [7]: 27%
viability, T/C [8]: 18.3%
viability, T/C [9]: 15.4%
viability, T/C [10]: 13.7%
viability, T/C [27]: 10.6%
viability, T/C [11]: 32.7%
viability, T/C [12]: 33.5%
viability, T/C [13]: 21.2%
viability, T/C [14]: 17.7%
viability, T/C [15]: 11.1%
viability, T/C [28]: 10.1%
viability, T/C [16]: 37.6%
viability, T/C [17]: 31.6%
viability, T/C [18]: 25.6%
viability, T/C [19]: 14.4%
viability, T/C [20]: 12.5%
viability, T/C [29]: 9.9%
viability, T/C [21]: 35%
viability, T/C [22]: 11.4%
viability, T/C [23]: 14.5%
viability, T/C [24]: 5.93%
viability, T/C [25]: 5.55%
viability, T/C [30]: 2.27%

COc1cc(Nc2ncc3c(n2)-c2ccc(Cl)cc2C(c2c(F)cccc2OC)=NC3)ccc1C(=O)O + C=CC(=O)N1CCN(c2nc(OCC3CCCN3C)nc3c2CCN(c2cccc4cccc(C)c24)C3)CC1CC#N
IC50 (second compound 0.0316 µM): < 31.6 nM
IC50 (second compound 0.1 µM): < 31.6 nM
IC50 (second compound 0.316 µM): < 31.6 nM
IC50 (second compound 1 µM): < 31.6 nM
IC50 (second compound 3.16 µM): < 31.6 nM
viability, T/C [5]: 32.8%
viability, T/C [26]: 20.1%
viability, T/C [31]: 20.5%
viability, T/C [32]: 20.2%
viability, T/C [33]: 18.7%
viability, T/C [34]: 16.3%
viability, T/C [10]: 25.7%
viability, T/C [27]: 22.9%
viability, T/C [35]: 17.6%
viability, T/C [36]: 19.2%
viability, T/C [37]: 21.8%
viability, T/C [38]: 15%
viability, T/C [15]: 29.2%
viability, T/C [28]: 22.6%
viability, T/C [39]: 20.3%
viability, T/C [40]: 19.7%
viability, T/C [41]: 23.3%
viability, T/C [42]: 16.9%
viability, T/C [20]: 27.8%
viability, T/C [29]: 26.4%
viability, T/C [43]: 24.6%
viability, T/C [44]: 25.4%
viability, T/C [45]: 26.7%
viability, T/C [46]: 22.9%
viability, T/C [25]: 28.7%
viability, T/C [30]: 30.4%
viability, T/C [47]: 30.3%
viability, T/C [48]: 23.7%
viability, T/C [49]: 17%
viability, T/C [50]: 1.09%

COc1cc2nccc(Oc3ccc(NC(=O)C4(C(=O)Nc5ccc(F)cc5)CC4)cc3)c2cc1OC + C=CC(=O)N1CCN(c2nc(OCC3CCCN3C)nc3c2CCN(c2cccc4cccc(C)c24)C3)CC1CC#N
IC50 (second compound 0.0316 µM): < 31.6 nM
IC50 (second compound 0.1 µM): < 31.6 nM
IC50 (second compound 0.316 µM): < 31.6 nM
IC50 (second compound 1 µM): < 31.6 nM
IC50 (second compound 3.16 µM): < 31.6 nM
viability, T/C [5]: 27%
viability, T/C [26]: 35.9%
viability, T/C [31]: 23.9%
viability, T/C [32]: 20.4%
viability, T/C [33]: 17.8%
viability, T/C [34]: 52.5%
viability, T/C [10]: 23.5%
viability, T/C [27]: 22.9%
viability, T/C [35]: 26.6%
viability, T/C [36]: 18.4%
viability, T/C [37]: 10.2%
viability, T/C [38]: 45.3%
viability, T/C [15]: 25.2%
viability, T/C [28]: 24.8%
viability, T/C [39]: 28.4%
viability, T/C [40]: 17.2%
viability, T/C [41]: 10.2%
viability, T/C [42]: 41.3%
viability, T/C [20]: 30.9%
viability, T/C [29]: 27.6%
viability, T/C [43]: 23.7%
viability, T/C [44]: 20.9%
viability, T/C [45]: 13.3%
viability, T/C [46]: 33%
viability, T/C [25]: 13.2%
viability, T/C [30]: 18.7%
viability, T/C [47]: 11.4%
viability, T/C [48]: 17.6%
viability, T/C [49]: 1.46%
viability, T/C [50]: 1.76%
